Legend:
CD8+ T cells = test: In vitro immunogenicity: T-cell priming with aAPCs loaded with peptide/MHC and anti-CD28, pMHC multimer readout; format: cell-based, human; details: pMHC multimer readout after T-cell priming
Description: After three cycles of stimulation, the detection of peptide-reactive cells was performed by 2D multimer staining with B*44/SEQ ID NO: 469 (FIG. 3A), B*44/SEQ ID NO: 512 (FIG. 3B), B*44/SEQ ID NO: 9 (FIG. 3C), B*44/SEQ ID NO: 11 (D), B*44/SEQ ID NO: 17 (E), B*44/SEQ ID NO: 35 (F) or B*44/SEQ ID NO: 41 (FIG. 3G). Right panels (FIGS. 3A through 3G) show control staining of cells stimulated with irrelevant B*44/peptide complexes. Viable singlet cells were gated for CD8+ lymphocytes. Boolean gates helped excluding false-positive events detected with multimers specific for different peptides.
In order to obtain information regarding the immunogenicity of the TUMAPs of the present invention, the inventors performed investigations using an in vitro T-cell priming assay based on repeated stimulations of CD8+ T cells with artificial antigen presenting cells (aAPCs) loaded with peptide/MHC complexes and anti-CD28 antibody.
In order to perform in vitro stimulations by artificial antigen presenting cells loaded with peptide-MHC complex (pMHC) and anti-CD28 antibody, the inventors first isolated CD8+ T cells from fresh HLA-A*02 leukapheresis products via positive selection using CD8 microbeads (Miltenyi Biotec, Bergisch-Gladbach, Germany) of healthy donors obtained from the University clinics Mannheim, Germany, after informed consent.
PBMCs and isolated CD8+ lymphocytes were incubated in T-cell medium (TCM) until use consisting of RPMI-Glutamax (Invitrogen, Karlsruhe, Germany) supplemented with 10% heat inactivated human AB serum (PAN-Biotech, Aidenbach, Germany), 100 U/ml Penicillin/100 μg/ml Streptomycin (Cambrex, Cologne, Germany), 1 mM sodium pyruvate (CC Pro, Oberdorda, Germany), 20 μg/ml Gentamycin (Cambrex). 2.5 ng/ml IL-7 (PromoCell, Heidelberg, Germany) and 10 U/ml IL-2 (Novartis Pharma, Nümberg, Germany) were also added to the TCM at this step.
Generation of pMHC/anti-CD28 coated beads, T-cell stimulations and readout was performed in a highly defined in vitro system using four different pMHC molecules per stimulation condition and 8 different pMHC molecules per readout condition.
The purified co-stimulatory mouse IgG2a anti human CD28 Ab 9.3 (Jung et al., 1987) was chemically biotinylated using Sulfo-N-hydroxysuccinimidobiotin as recommended by the manufacturer (Perbio, Bonn, Germany). Beads used were 5.6 μm diameter streptavidin coated polystyrene particles (Bangs Laboratories, Illinois, USA).
800.000 beads/200 μl were coated in 96-well plates in the presence of 4×12.5 ng different biotin-pMHC, washed and 600 ng biotin anti-CD28 were added subsequently in a volume of 200 μl. Stimulations were initiated in 96-well plates by co-incubating 1×10^6 CD8+ T cells with 2×10^5 washed coated beads in 200 μl TCM supplemented with 5 ng/ml IL-12 (PromoCell) for 3 days at 37° C. Half of the medium was then exchanged by fresh TCM supplemented with 80 U/ml IL-2 and incubating was continued for 4 days at 37° C. This stimulation cycle was performed for a total of three times. For the pMHC multimer readout using 8 different pMHC molecules per condition, a two-dimensional combinatorial coding approach was used as previously described (Andersen et al., 2012) with minor modifications encompassing coupling to 5 different fluorochromes. Finally, multimeric analyses were performed by staining the cells with Live/dead near IR dye (Invitrogen, Karlsruhe, Germany), CD8-FITC antibody clone SK1 (BD, Heidelberg, Germany) and fluorescent pMHC multimers. For analysis, a BD LSRII SORP cytometer equipped with appropriate lasers and filters was used. Peptide specific cells were calculated as percentage of total CD8+ cells. Evaluation of multimeric analysis was done using the FlowJo software (Tree Star, Oregon, USA). In vitro priming of specific multimer+CD8+ lymphocytes was detected by comparing to negative control stimulations.

HLA-B*44:05 = HLA-B*44:05 (Homo sapiens, UniProt P01889, A223V/A65T/A93T/A95T/D201E/D98Y/E176V/E187L/E204Q/E69K/G107R/H137Y/K202T/L105A/L119I/N104T/N87E/Q56L/Q94N/R106L/R155S/R180D/S101N/S121R/S35A/S48T/T118I/V36M/W191S/Y91S); test: MHC binding assay (UV-ligand exchange, β2m ELISA, peptide exchange yield); details: binding to HLA-B*44:05
How it was run: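 Binding is read as exchange yield, i.e. stabilized complex remaining after UV cleavage of a photolabile ligand in the presence of the candidate peptide. Streptavidin-captured monomers (100-fold dilution) are probed with HRP-anti-β2m, 1h at 37° C, TMB, A450. Standard curve: HLA-A*02:01/MLA-001 monomers at 15-500 ng/ml.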

Substance | Wells positive [%] (CD8+ T cells; Table 10b) | Peptide exchange (MHC class I binding score, peptide exchange yield) (HLA-B*44:05) | Wells positive [%] (CD8+ T cells; Table 10a)
79 (TEAQRLDCW; listed as Homo sapiens) [compound 79] | + (<20% = +) | +++ (>50 = +++) | 
459 (KEVDPAGHSY; listed as Homo sapiens) [compound 459] |  |  | ++ (20%-49% = ++)
467 (FEYDFLLQRI; listed as Homo sapiens) [compound 467] |  |  | + (<20% = +)
54 (QEISAHRTEF; listed as Homo sapiens) [compound 54] | + (<20% = +) | +++ (>50 = +++) | 
512 (AEPLVGQRW; listed as Homo sapiens) [compound 512] |  |  | ++++ (>=70% = ++++)
20 (LEALLSDLF; listed as Homo sapiens) [compound 20] | ++ (20%-49% = ++) | +++ (>50 = +++) | 
489 (SEYADTHYF; listed as Homo sapiens) [compound 489] |  |  | +++ (50%-69% = +++)
80 (TEQSLYYRQW; listed as Homo sapiens) [compound 80] | ++++ (>=70% = ++++) | +++ (>50 = +++) | 
73 (GEGTLRLSW; listed as Homo sapiens) [compound 73] | ++ (20%-49% = ++) | ++++ (>75% = ++++) | 
488 (SENPETITY; listed as Homo sapiens) [compound 488] |  |  | ++ (20%-49% = ++)
72 (AEVGDIIKVHF; listed as Homo sapiens) [compound 72] | ++ (20%-49% = ++) | +++ (>50 = +++) | 
474 (AEEEIMKKI; listed as Homo sapiens) [compound 474] |  |  | + (<20% = +)
422 (EEAQWVRKYF; listed as Homo sapiens) [compound 422] | ++++ (>=70% = ++++) | +++ (>50 = +++) | 
35 (RELVHMINW; listed as Homo sapiens) [compound 35] | ++ (20%-49% = ++) | ++++ (>75% = ++++) | 
506 (QESDLRLFL; listed as Homo sapiens) [compound 506] |  |  | + (<20% = +)
11 (EENIVAIGI; listed as Homo sapiens) [compound 11] | +++ (50%-69% = +++) | +++ (>50 = +++) | 
511 (AEAVLKTLQEL; listed as Homo sapiens) [compound 511] |  |  | + (<20% = +)
492 (AEHNFVAKA; listed as Homo sapiens) [compound 492] |  |  | + (<20% = +)
469 (SEAFPSRAL; listed as Homo sapiens) [compound 469] |  |  | +++ (50%-69% = +++)
504 (KESQLPTVM; listed as Homo sapiens) [compound 504] |  |  | ++ (20%-49% = ++)
494 (KEITGFLLI; listed as Homo sapiens) [compound 494] |  |  | ++ (20%-49% = ++)
510 (SEDLAVHLY; listed as Homo sapiens) [compound 510] |  |  | ++++ (>=70% = ++++)
515 (AEGGKVPIKW; listed as Homo sapiens) [compound 515] |  |  | ++ (20%-49% = ++)

Substance | Wells positive [%] (CD8+ T cells; Table 10b) | Peptide exchange (MHC class I binding score, peptide exchange yield) (HLA-B*44:05) | Wells positive [%] (CD8+ T cells; Table 10a)
470 (EDAQGHIW; listed as Homo sapiens) [compound 470] |  |  | ++ (20%-49% = ++)
496 (AEIGEGAYGKVF; listed as Homo sapiens) [compound 496] |  |  | ++ (20%-49% = ++)
461 (MEVDPIGHVYIF; listed as Homo sapiens) [compound 461] |  |  | + (<20% = +)
497 (GEGAYGKVF; listed as Homo sapiens) [compound 497] |  |  | +++ (50%-69% = +++)
518 (FELPTGAGL; listed as Homo sapiens) [compound 518] |  |  | ++ (20%-49% = ++)
495 (RENQVLGSGW; listed as Homo sapiens) [compound 495] |  |  | +++ (50%-69% = +++)
513 (AEKDGKLTDY; listed as Homo sapiens) [compound 513] |  |  | + (<20% = +)
508 (AESEDLAVHL; listed as Homo sapiens) [compound 508] |  |  | + (<20% = +)
468 (QEQDVDLVQKY; listed as Homo sapiens) [compound 468] |  |  | + (<20% = +)
460 (SEFMQVIF; listed as Homo sapiens) [compound 460] |  |  | + (<20% = +)
487 (LEMPHYSTF; listed as Homo sapiens) [compound 487] |  |  | +++ (50%-69% = +++)
490 (TENRYCVQL; listed as Homo sapiens) [compound 490] |  |  | ++ (20%-49% = ++)
501 (KEGDLGGKQW; listed as Homo sapiens) [compound 501] |  |  | + (<20% = +)
509 (AESEDLAVHLY; listed as Homo sapiens) [compound 509] |  |  | + (<20% = +)
500 (QEVLLQTFL; listed as Homo sapiens) [compound 500] |  |  | + (<20% = +)
463 (QEMQHFLGL; listed as Homo sapiens) [compound 463] |  |  | + (<20% = +)
479 (QENSYQSRL; listed as Homo sapiens) [compound 479] |  |  | + (<20% = +)
491 (YEVDTVLRY; listed as Homo sapiens) [compound 491] |  |  | + (<20% = +)
516 (DEYLIPQQGF; listed as Homo sapiens) [compound 516] |  |  | + (<20% = +)
485 (NEHPSNNW; listed as Homo sapiens) [compound 485] |  |  | + (<20% = +)
476 (MEHPGKLLF; listed as Homo sapiens) [compound 476] |  |  | + (<20% = +)
477 (VYEKNGYIYF; listed as Homo sapiens) [compound 477] |  |  | ++++ (>=70% = ++++)

From patent US12065471B2, “B*44 restricted peptides for use in immunotherapy against cancers and related methods” (Immatics Biotechnologies GmbH, priority 2018, dated 2024)
